Columns and labels:
[1] = tested on: rat central imidazoline I2 receptor; experiment: Central imidazoline I2 radioligand binding ([3H]Idazoxan); conditions: compound at 1 μM; Wistar Rat cerebral cortex
Description: To evaluate in radioligand binding assays the activity of compounds of the invention, rat central imidazoline I2 receptor obtained from Wistar Rat cerebral cortex (Brown, C. M. et al., Br. J. Pharmacol. 99:803, 1990) in a modified Tris-HCl buffer (50 mM Tris-HCl buffer, pH 7.4, 0.5 mM EDTA) was used. Compounds of the invention were incubated with 2 nM [^3H]Idazoxan for 30 minutes at 25° C. Non-specific binding was estimated in the presence of 1 μM Idazoxan. Receptor proteins were filtered and washed, the filters were then counted to determine [^3H]Idazoxan specifically bound. Compounds were screened at 1 μM or lower, using 1% DMSO as vehicle. Compounds of the invention were tested in this biochemical assay and percent inhibition of specific binding was determined. Biochemical assay results are presented as the percent inhibition of specific binding in Table 5.

[2] = molecular target: T1, human recombinant serotonin (5-Hydroxytryptamine) 5-HT5A receptor (Homo sapiens, UniProt P47898); experiment: Serotonin 5-HT5A radioligand binding ([3H]LSD); conditions: compound at 1 μM; CHO-K1 cells; read-out: Serotonin (1 μM) 5-HT5A, percent inhibition of specific binding
T1 construct: expressed in transfected cells; host or cells: CHO-K1 cells
Description: To evaluate in radioligand binding assays the activity of compounds of the invention, human recombinant serotonin (5-Hydroxytryptamine) 5-HT5A receptor expressed in Chinese hamster ovary (CHO-K1) cells (Rees, S. et al., FEBS Lett. 355:242, 1994) in a modified Tris-HCl buffer (50 mM Tris-HCl, pH 7.4, 10 mM MgCl2, 0.5 mM EDTA) was used. Compounds of the invention were incubated with 1.7 nM [^3H]Lysergic acid diethylamide (LSD) for 60 minutes at 37° C. Non-specific binding was estimated in the presence of 100 μM Serotonin (5-HT). Receptor proteins were filtered and washed, the filters were then counted to determine [^3H]LSD specifically bound. Compounds were screened at 1 μM or lower, using 1% DMSO as vehicle. Compounds of the invention were tested in this biochemical assay and percent inhibition of specific binding was determined. Biochemical assay results are presented as the percent inhibition of specific binding in Table 7.

[3] = molecular target: T2, rat adrenergic α1A receptor (Rattus norvegicus, UniProt P43140); experiment: Adrenergic α1A radioligand binding ([3H]Prozosin); conditions: compound at 1 μM; Wistar Rat submaxillary glands; read-out: Adrenergic (1 μM) α1A, percent inhibition of specific binding
T2 construct: obtained from Wistar Rat submaxillary glands; from tissue; host or cells: Wistar rat submaxillary glands
T2 sequence (P43140 1-466): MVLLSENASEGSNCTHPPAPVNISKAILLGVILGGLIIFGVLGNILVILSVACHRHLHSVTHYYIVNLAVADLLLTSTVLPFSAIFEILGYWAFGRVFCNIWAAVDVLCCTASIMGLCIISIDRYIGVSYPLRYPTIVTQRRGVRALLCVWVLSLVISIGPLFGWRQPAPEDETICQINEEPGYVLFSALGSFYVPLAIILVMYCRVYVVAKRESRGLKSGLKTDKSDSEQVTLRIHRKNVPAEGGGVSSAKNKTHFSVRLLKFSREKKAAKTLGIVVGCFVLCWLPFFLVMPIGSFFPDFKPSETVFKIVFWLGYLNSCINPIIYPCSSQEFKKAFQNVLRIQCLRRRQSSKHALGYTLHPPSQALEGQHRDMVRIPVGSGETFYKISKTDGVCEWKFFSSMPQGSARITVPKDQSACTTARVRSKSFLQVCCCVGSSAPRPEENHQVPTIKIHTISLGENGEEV
Description: To evaluate in radioligand binding assays the activity of compounds of the invention, rat adrenergic α1A receptor obtained from Wistar Rat submaxillary glands (Michel, A. D. et al., Br. J. Pharmacol. 98:883, 1989) in a modified Tris-HCl buffer (50 mM Tris-HCl buffer, pH 7.4, 0.5 mM EDTA) was used. Compounds of the invention were incubated with 0.25 nM [^3H]Prozosin for 60 minutes at 25° C. Non-specific binding was estimated in the presence of 10 μM phentolamine. Receptor proteins were filtered and washed, the filters were then counted to determine [^3H]Prozosin specifically bound. Compounds of the invention were screened at 1 μM or lower, using 1% DMSO as vehicle. Compounds of the invention were tested in this biochemical assay and percent inhibition of specific binding was determined. Biochemical assay results are presented as the percent inhibition of specific binding in Table 6.

[4] = molecular target: T3, human recombinant serotonin (5-Hydroxytryptamine) 5-HT2A receptor (Homo sapiens, UniProt P28223); experiment: Serotonin 5-HT2A radioligand binding ([3H]Ketanserin); conditions: compound at 1 μM; CHO-K1 cells; read-out: Serotonin (1 μM) 5-HT2A, percent inhibition of specific binding
T3 construct: expressed in transfected cells; host or cells: CHO-K1 cells
Description: To evaluate in radioligand binding assays the activity of compounds of the invention, human recombinant serotonin (5-Hydroxytryptamine) 5-HT2A receptor expressed in Chinese hamster ovary (CHO-K1) cells (Bonhaus, D. W. et al. Br. J. Pharmacol. 115:622, 1995; Saucier, C. and Albert, P. R., J. Neurochem. 68:1998, 1997) in a 50 mM Tris-HCl buffer, pH 7.4, was used. Compounds of the invention were incubated with 0.5 nM [^3H]Ketanserin for 60 minutes at 25° C. Non-specific binding was estimated in the presence of 1 μM Mianserin. Receptor proteins were filtered and washed, the filters were then counted to determine [^3H] Ketanserin specifically bound. Compounds were screened at 1 μM or lower, using 1% DMSO as vehicle. Biochemical assay results are presented as the percent inhibition of specific binding in Table 7.

[5] = molecular target: T4, human recombinant serotonin (5-Hydroxytryptamine) 5-HT7 receptor (Homo sapiens, UniProt P34969); experiment: Serotonin 5-HT7 radioligand binding ([3H]LSD); conditions: compound at 1 μM; CHO cells; read-out: Serotonin (1 μM) 5-HT7, percent inhibition of specific binding
T4 construct: expressed in transfected cells; host or cells: CHO cells
Description: To evaluate in radioligand binding assays the activity of compounds of the invention, human recombinant serotonin (5-Hydroxytryptamine) 5-HT7 receptor expressed in Chinese hamster ovary (CHO) cells (Roth, B. L. et al., J. Pharmacol. Exp. Ther. 268:1403, 1994; Shen, Y. et al., J. Biol. Chem. 268:18200, 1993) in a modified Tris-HCl buffer (50 mM Tris-HCl, pH 7.4, 10 mM MgCl2, 0.5 mM EDTA) was used. Compounds of invention were incubated with 5.5 nM [^3H] Lysergic acid diethylamide (LSD) for 2 hours at 25° C. Non-specific binding was estimated in the presence of 10 μM Serotonin (5-HT). Receptor proteins were filtered and washed, the filters were then counted to determine [^3H]LSD specifically bound. Compounds were screened at 1 μM or lower, using 1% DMSO as vehicle. Biochemical assay results are presented as the percent inhibition of specific binding in Table 7.

T4 sequence (P34969 whole entry): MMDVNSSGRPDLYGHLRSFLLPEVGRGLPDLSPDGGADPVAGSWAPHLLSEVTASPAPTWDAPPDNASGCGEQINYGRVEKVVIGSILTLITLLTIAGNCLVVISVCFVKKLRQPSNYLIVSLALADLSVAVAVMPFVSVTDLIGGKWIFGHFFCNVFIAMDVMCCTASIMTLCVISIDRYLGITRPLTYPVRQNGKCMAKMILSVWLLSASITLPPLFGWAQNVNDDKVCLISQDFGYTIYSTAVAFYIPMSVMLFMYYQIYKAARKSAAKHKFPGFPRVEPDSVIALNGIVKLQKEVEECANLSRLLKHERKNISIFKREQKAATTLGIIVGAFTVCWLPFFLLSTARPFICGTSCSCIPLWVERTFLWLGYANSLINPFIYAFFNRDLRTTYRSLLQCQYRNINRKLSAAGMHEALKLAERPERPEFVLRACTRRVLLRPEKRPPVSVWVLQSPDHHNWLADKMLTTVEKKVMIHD
T1 sequence (P47898 whole entry): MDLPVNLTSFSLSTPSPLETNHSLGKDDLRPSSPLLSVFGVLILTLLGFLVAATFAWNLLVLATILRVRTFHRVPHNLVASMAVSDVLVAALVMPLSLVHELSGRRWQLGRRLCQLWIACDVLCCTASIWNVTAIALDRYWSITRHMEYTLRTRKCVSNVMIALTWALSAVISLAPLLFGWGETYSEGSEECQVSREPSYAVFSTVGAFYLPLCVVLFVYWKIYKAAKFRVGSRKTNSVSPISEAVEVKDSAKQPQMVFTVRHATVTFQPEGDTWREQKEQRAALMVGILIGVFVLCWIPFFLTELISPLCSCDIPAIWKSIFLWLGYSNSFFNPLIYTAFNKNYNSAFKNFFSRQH
T3 sequence (P28223 whole entry): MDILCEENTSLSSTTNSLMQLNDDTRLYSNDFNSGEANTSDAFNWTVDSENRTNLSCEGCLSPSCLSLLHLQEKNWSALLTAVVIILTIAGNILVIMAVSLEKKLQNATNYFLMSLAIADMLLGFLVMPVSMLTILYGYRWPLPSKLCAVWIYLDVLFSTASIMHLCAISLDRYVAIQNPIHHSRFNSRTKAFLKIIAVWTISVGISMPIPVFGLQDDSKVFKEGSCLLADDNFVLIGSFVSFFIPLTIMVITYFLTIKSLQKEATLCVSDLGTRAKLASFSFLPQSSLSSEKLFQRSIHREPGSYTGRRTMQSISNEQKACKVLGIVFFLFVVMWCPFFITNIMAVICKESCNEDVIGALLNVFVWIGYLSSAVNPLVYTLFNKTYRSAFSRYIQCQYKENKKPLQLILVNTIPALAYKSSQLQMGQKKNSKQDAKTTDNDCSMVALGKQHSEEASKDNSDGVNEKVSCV

Structure (SMILES) | Imidazoline I2 Central (1 μM), percent inhibition of specific binding [1] | inhibition at 1 µM [2] | inhibition at 1 µM [3] | inhibition at 1 µM [4] | inhibition at 1 µM [5]
CCNC(=O)CCn1c2c(c3cc(C)ccc31)CN(C)CC2 [Compound 2, N-ethyl-3-(1,2,3,4-tetrahydro-2,8-dimethylpyrido[4,3-b]indol-5-yl)propanamide] | 8% | 14% | 10% | 22% | 47%
Cc1ccc2c(c1)c1c(n2CCC(=O)NC2CCCCC2)CCN(C)C1 [Compound 3, N-cyclohexyl-3-(1,2,3,4-tetrahydro-2,8-dimethylpyrido[4,3-b]indol-5-yl)propanamide] | 27% | 35% | 8% | 63% | 36%
Cc1ccc2c(c1)c1c(n2CCC(=O)NC2CCCC2)CCN(C)C1 [Compound 4, N-cyclopentyl-3-(1,2,3,4-tetrahydro-2,8-dimethylpyrido[4,3-b]indol-5-yl)propanamide] | 54% | 47% | 35% | 53% | 59%
CCOC(=O)CCCn1c2c(c3cc(C)ccc31)CN(C)CC2 [Compound 5, ethyl 4-(1,2,3,4-tetrahydro-2,8-dimethylpyrido[4,3-b]indol-5-yl)butanoate] | 53% | 62% | 69% | 91% | 95%
CCNC(=O)CCCn1c2c(c3cc(C)ccc31)CN(C)CC2 [Compound 6, N-ethyl-4-(1,2,3,4-tetrahydro-2,8-dimethylpyrido[4,3-b]indol-5-yl)butanamide] | 52% | 25% | 18% | 30% | 43%
Cc1ccc2c(c1)c1c(n2CCNC(=O)OCC(Cl)(Cl)Cl)CCN(C)C1 [Compound 8, 2,2,2-trichloroethyl 2-(1,2,3,4-tetrahydro-2,8-dimethylpyrido[4,3-b]indol-5-yl)ethylcarbamate] | 57% | 60% | 82% | 99% | 75%
Cc1ccc2c(c1)c1c(n2CCNC(=O)C2CCCNC2)CCN(C)C1 (centres unmarked) [Compound 9, N-(2-(1,2,3,4-tetrahydro-2,8-dimethylpyrido[4,3-b]indol-5-yl)ethyl)piperidine-3-carboxamide] | 9% | -6% | 5% | 15% | -8%

— patent US9115137B2, “2,3,4,5-tetrahydro-1H-pyrido[4,3-B]indole compounds and methods of use thereof” (priority 2008, dated 2015)
